# Test results taken from publication PMC10832398 (Molecular cancer therapeutics, 2023).
# Values joined by “and” are separate entries in the source; they are usually repeats but may differ in a detail not shown here. Identical values can stand only once.
# What was measured:
# [1] = system: HS01 cells; test: Combination matrix cell viability assay; type: cell-based, human
# [2] = system: HS02 cells; test: Combination matrix cell viability assay; type: cell-based, human
# [3] = system: phospho-AKT, phospho-FAK, phospho-Src, EphA2, cyclin D1, p21 in HS01 cells; test: Western blots of whole cell lysates of HS01 cells; type: cell-based, human; details: HS01, 24h
# [4] = system: primary human vestibular schwannoma (VS) cells; test: ApoTox-Glo viability in primary VS cells; type: cell-based; details: 96 hrs; omipalisib 16nM; dasatinib 200, 400, and 800nM
# [5] = Homo sapiens, 72 h, HS01, single drug within the combination matrix
# [6] = Homo sapiens, 72 h, HS02, single drug within the combination matrix
# [7] = HS01, single drug within the combination matrix, 72h
# [8] = HS02, single drug within the combination matrix, 72h
smiles,measurement,setting,value
CCn1c(=O)c(-c2cc[nH]n2)cc2c(C)nc(N)nc21 [Voxtalisib],GI50,[1]; [5],> 10 µM
same,GI50,[2]; [6],> 10 µM
CN(C)C1CCN(C(=O)c2ccc(NC(=O)Nc3ccc(-c4nc(N5CCOCC5)nc(N5CCOCC5)n4)cc3)cc2)CC1 [Gedatolisib],GI50,"[1]; Homo sapiens, 72 h",0.08 µM
same,GI50,"[2]; Homo sapiens, 72 h",0.09 µM
CNC(=O)c1ccccc1Nc1nc(Nc2ccc(N3CCOCC3)cc2OC)ncc1Cl [TAE226],GI50,[1]; [7],1 µM
same,GI50,[2]; [8],2.1 µM
"Cc1nc(Nc2ncc(C(=O)Nc3c(C)cccc3Cl)s2)cc(N2CCN(CCO)CC2)n1 [Dasatinib, dasatinib]",phosphorylated FAK-Tyr576 and Src-Tyr527,[3]; dasatinib 100 and 400nM alone or in combination,Dose-dependent decreases
same,GI50,[1]; [5],> 10 µM
same,GI50,[2]; [6],> 10 µM
CS(=O)(=O)N1CCN(Cc2cc3nc(-c4cccc5[nH]ncc45)nc(N4CCOCC4)c3s2)CC1 [Pictilisib],GI50,[2]; [6],> 10 µM
"COc1ncc(-c2ccc3nccc(-c4ccnnc4)c3c2)cc1NS(=O)(=O)c1ccc(F)cc1F [Omipalisib, omipalisib]",Cyclin D1 levels,[3]; 0.1 μM,reduced
same,p21 levels,[3]; 0.1 μM,not observed
same,Phospho-AKT (T308 and S473) decrease,[3]; omipalisib 4 and 16nM alone or with dasatinib 100 and 400nM,91-99%
same,phosphorylated Src-Tyr527 levels compared to vehicle,[3]; omipalisib alone,increased
same,reduction in viability (mean fold change of all VS tumors),[4],≥ 20%
same,GI50,[1]; [7],0.02 µM
same,GI50,"[1]; Homo sapiens, alone in HS01 cells",0.05 to 0.08 µM
same,synergistic doses,"[1]; omipalisib/dasatinib matrix, Fig. 1A (HS01, HS02)",39 to 156 nM
Nc1cc(C(F)(F)F)c(-c2cc(N3CCOCC3)nc(N3CCOCC3)n2)cn1 [Buparlisib],GI50,[1]; [5],4.3 µM
same,GI50,[2]; [6],4.9 µM
CN(c1ncccc1CNc1nc(Nc2ccc3c(c2)CC(=O)N3)ncc1C(F)(F)F)S(C)(=O)=O [PF-00562271],GI50,[2]; [8],6.5 µM and 3.8 µM
CNC(=O)c1ccccc1Nc1cc(Nc2ccc(N3CCOCC3)cc2OC)ncc1C(F)(F)F [PND-1186],GI50,[1]; [5],> 10 µM
same,GI50,[2]; [6],> 10 µM
